Reference: patent US20260315486A1, “ALECTINIB FOR THE TREATMENT OF ALK FUSION-POSITIVE SOLID OR CNS TUMOURS” (Hoffmann-La Roche Inc., priority 2023, published 2026)

How the values were obtained:
[1] = Paediatric clinical trial, Part 1 safety run-in: safety and tolerability (dose-limiting toxicities, adverse events); type: in vivo, human (paediatric patients)
Source text: (§1) Alectinib will be administered orally or via feeding tube to participants BID on Days 1-28 of each 28-day cycle. All participants will be closely monitored for adverse events (regardless of relationship to study drug) throughout the study and for at least 28 days after the final dose of study treatment or until initiation of a new anti-cancer therapy, whichever occurs first.
Owing to the limitations of predicting exposure in children who are <2 years old, before enrolment of participants <2 years old, the investigator must discuss a participant's case with the Medical Monitor until at least 3 participants who are ≥2-6 years old have completed one cycle of treatment. The first participant enrolled must complete at least 8 days of treatment without a DLT before subsequent participants can enroll. If a dose adjustment is required because of toxicity, the same approach will be taken for the first participant at the new dose level. Participants will be closely monitored for adverse events during a DLT assessment window of one cycle (28 days). Participants who discontinue from the study prior to completing the DLT assessment window or who complete <80% (i.e., […]) of the prescribed therapy for that cycle for reasons other than a DLT will be considered non-evaluable. DLT non-evaluable participants will be replaced, unless the Medical Monitor determines that replacement is not necessary for a dose adjustment decision. The Medical Monitor will review all participants who take prohibited therapies, foods, or supplements or who receive supportive care during the DLT assessment window that would confound the evaluation of DLTs (not including supportive care described below as part of the DLT definition) to determine DLT evaluability and whether such participants will be replaced.
During the safety run-in phase, any one of the following events will be considered a DLT if it occurs during the DLT assessment window and is assessed by the investigator to be related or possibly related to alectinib (rules for attributing causality are defined below in ‘Adverse events’). Adverse events identified as DLTs, as defined below, must be reported to the Sponsor within 24 hours.
The following will be considered as a DLT: • Any treatment-related death • Grade 4 neutropenia (ANC<500 cells/mm^3 which is equivalent to ANC<0.5×10^9/L) lasting at least 7 days • Febrile neutropenia: ANC<1000 cells/mm^3 (which is equivalent to ANC<1×10^9/L) with a single temperature of >38.3° C. (101° F.) or a sustained temperature of ≥38° C. (100.4° F.) for more than 1 hour • Grade 4 anaemia • Grade 4 thrombocytopenia (i.e., platelet count <25.0×10^9/L) or Grade 3 thrombocytopenia associated with clinically significant bleeding or any thrombocytopenia requiring platelet transfusion. • Of note, the post-surgical platelet threshold for platelets transfusion could be higher. […]

[2] = tested on: ALK fusion-positive solid or CNS tumours; experiment: Paediatric clinical trial, Part 1 safety run-in: investigator-reported tumour response (RANO / RECIST v1.1 / INRC); type: in vivo, human (paediatric patients)
Source text: The study consists of three parts, all enrolling paediatric participants with solid or CNS tumours with known ALK fusion for whom prior treatment has proven to be ineffective or for whom there is no satisfactory treatment available: • Part 1, dose confirmation and safety run-in: to identify the RP2D for paediatric participants, achieving the exposure observed in the adult population • This portion will consist of a safety run-in with a minimum of 6 participants (up to approximately 18 participants) to assess the safety, tolerability, and pharmacokinetics of alectinib in the paediatric population. The initial paediatric dose will be assessed and refined by modelling and simulation prospectively. • Part 2, initial expansion: to evaluate the safety and preliminary efficacy of alectinib in newly enrolled paediatric participants treated at the paediatric RP2D. A minimum of 10 participants will be enrolled in this part of the study. If 4 or more participants achieve an objective response to alectinib (as described in Part 2, below), additional expansion will be performed. • Part 3, additional expansion: This portion of the study will enroll approximately 14 additional paediatric participants. An integrated efficacy analysis accounting for every participant treated at paediatric RP2D across all cohorts will be used for the confirmation of the efficacy of alectinib.
as §1
Response will be assessed by the investigator on the basis of physical examinations, computed tomography (CT) scans, and other modalities where relevant (e.g., magnetic resonance imaging [MRI] scans, brain scans, bone marrow examinations, fluorodeoxyglucose-positron emission tomography (FDG-PET), metaiodobenzoguanidine [MIBG] scan), according to RANO, INRC, and RECIST v1.1 (see below). Tumour assessment imaging should include all areas of known disease.
An objective response should be confirmed by repeat assessments ≥4 weeks after initial documentation. The same radiographic procedure used to assess disease sites at screening should be used throughout the study (e.g., the same contrast protocol for CT scans). To the extent that is feasible, assessments should be performed by the same evaluator to ensure internal consistency across visits.
Selected sections from the Response Evaluation Criteria in Solid Tumors (RECIST), Version 1.1 (Eisenhauer et al., 2009, Eur J Cancer, 45:228-47) are presented below, with slight modifications.
Antitumor activity will be assessed based on clinical and radiographic evidence as described by the INRC (Park et al. 2017, Clin Oncol; 35:2580-7).
Antitumor activity will be assessed based on clinical and radiographic evidence as described by the RANO criteria.
The primary efficacy endpoint is ORR in participants treated at the paediatric RP2D, as assessed by BICR, defined as the proportion of participants with an objective response. The objective response for individual participants will be assessed per RECIST v1.1 for participants with extracranial tumours, and per RANO for participants with primary CNS tumours, and INRC for neuroblastoma. An objective response is defined as a CR or PR per disease-specific response criteria, confirmed ≥4 weeks apart in two separate tumour assessments. Participants not meeting these criteria (including participants without a postbaseline tumour assessment) will be considered non-responders.
Patients with ALK fusion-positive solid or CNS tumours for whom prior treatment has proven to be ineffective or for whom there is no satisfactory treatment available, less than 18 years of age, were eligible. […]

[3] = tested on: FGFR2; details: stated without data; cited from earlier work
[4] = Peters et al., 2017; cited from earlier work
[5] = stated as known; may result in bradycardia; cited from earlier work
[6] = 8 patients, Part 1 safety run-in
[7] = 7 patients evaluable for efficacy (ALCL patient excluded), investigator, data cut off Jun. 12, 2023
[8] = 7 patients evaluable for efficacy, investigator

CCc1cc2c(cc1N1CCC(N3CCOCC3)CC1)C(C)(C)c1[nH]c3cc(C#N)ccc3c1C2=O [Alectinib, 9-ethyl-6,6-dimethyl-8-(4-morpholin-4-yl-piperidin-1-yl)-11-oxo-6,11-dihydro-5H-benzo[b]carbazole-3-carbonitrile]
AE-related deaths [1, 6]: no AE-related deaths
Dose Limiting Toxicities [1, 6]: No Dose Limiting Toxicities were reported
New safety signals [1, 6]: no new safety signals detected
Patients with Grade ≥3 related AE [1, 6]: 2 patients
Patients with a related Adverse Event (AE) [1, 6]: Seven
Tolerability ([1]; paediatric patients with ALK-fusion positive solid or CNS tumours): generally well tolerated
Best Overall Response: responders (CR + PR), number of patients [2, 7]: 4 patients
Best Overall Response: responders (CR + PR), percent of patients [2, 7]: 57.1%
Best Overall Response: CR, number of patients [2, 8]: 1 CR
Best Overall Response: PR, number of patients [2, 8]: 3 PR
Best Overall Response: Stable Disease, number of patients [2, 8]: 2 patients
Best Overall Response: Stable Disease, percent of patients [2, 8]: 28.6%
Best Overall Response (Investigator): Complete Response (CR), number of patients ([2]; N = 8, all enrolled patients): 1
Best Overall Response (Investigator): Partial Response (PR), number of patients ([2]; N = 8, all enrolled patients): 4
Best Overall Response (Investigator): Progressive Disease (PD), number of patients ([2]; N = 8, all enrolled patients): 0
Best Overall Response (Investigator): Stable Disease (SD), number of patients ([2]; N = 8, all enrolled patients): 2
Best Overall Response (Investigator): Total Responders, number of patients ([2]; N = 8, all enrolled patients): 5
Best Overall Response (Investigator, %): Complete Response (CR) ([2]; N = 8, all enrolled patients): 12.5%
Best Overall Response (Investigator, %): Partial Response (PR) ([2]; N = 8, all enrolled patients): 50.0%
Best Overall Response (Investigator, %): Progressive Disease (PD) ([2]; N = 8, all enrolled patients): 0.0%
Best Overall Response (Investigator, %): Total Responders ([2]; N = 8, all enrolled patients): 62.5%
Response, in words ([2]; conclusion, paediatric patients with ALK-fusion positive solid or CNS tumours): majority of patients experiencing a response
Inhibitory activity on FGFR2 [3]: no inhibitory activity
CNS penetration [4]: CNS penetrant
Negative chronotropic effect [5]: known negative chronotropic effect of alectinib that may result in bradycardia
